Data on 4 molecules can be found in paper PMC5077133, “Towards Development of Small Molecule Lipid II Inhibitors as Novel Antibiotics” (PLoS ONE, 2016).

One data set deals with HeLa cells. Nature of the data set: Cytotoxicity against mammalian cells (MTS assay). The format is cell-based. As for the experimental part: The cytotoxicity concentration of antibacterial compounds that produces half maximal decrease in viability (CC50) against mammalian cells (HeLa, ATCC CCL-2.2) was determined as described. The effect of compounds on HeLa cell viability was assessed in triplicate by measuring the mitochondrial activity using MTS assays according to the manufacturer’s instructions (Cell Titer 96 proliferation assay, Promega). The cells were incubated for 72 hours in RPMI1640 medium containing the compounds at final concentrations ranging from 64 to 0.125 μg/ml. CC50 was determined using a standard curve of serially diluted untreated cells in each experiment.

Another data set relates to A. baumanii ATCC 19606. Nature of the data set: Antibacterial activity (MIC, broth dilution). The format is cell-based, Acinetobacter baumanii. Conditions: CLSI, in µg/mL. The text has this: Staphylococcus aureus ATCC 29213, Escherichia coli ATCC 25922, Enterococcus faecalis ATCC 29212, Streptococcus pneumonia ATCC 49619 and Acinetobacter baumanii ATCC 19606 were obtained from Microbiologics (St. Cloud, MN). E. faecalis ATCC 51575, ATCC 51299 and REMEL C99707 and E. faecium ATCC 51559 (MDR), REMEL IH79985 and REMEL C110914 were generously provided by the Laboratory of Pathology, University of Maryland Baltimore School of Medicine. Unless stated otherwise, chemicals and reagents were purchased from Sigma.
(§1) Determination of the Minimal Inhibitory Concentrations (MIC) by dilution was carried out by broth dilution according to CLSI standards.
(Dilution methods test growth across graded concentrations, often in twofold steps.)

In data set [1] the test system is K. pneumoniae NR-15410 (KPC). Description: Antibacterial activity (MIC, broth dilution). The format is cell-based. Conditions: CLSI. As for the experimental part: as §1
The next data set relates to P. aeruginosa X13273. Description: Antibacterial activity (MIC, broth dilution). Type of data set: cell-based. Conditions: CLSI, in µg/mL. As for the experimental part: as §1
Another data set deals with E. aerogenes ATCC 13048. Description: Antibacterial activity (MIC, broth dilution). Type of data set: cell-based. To be noted: CLSI. As for the experimental part:
as §1

Data set [2] concerns S. aureus HFH-30123 (MRSA). Nature of the data set: Antibacterial activity (MIC, broth dilution). Type of data set: cell-based. To be noted: CLSI. On the procedure: as §1
The subject of the next data set is E. faecium F118 (VRE). Description: Antibacterial activity (MIC, broth dilution). The format is cell-based. To be noted: CLSI, in µg/mL. As for the experimental part:
as §1

For another data set, the system named is P. aeruginosa ATCC 27853. Nature of the data set: Antibacterial activity (MIC, broth dilution). The format is cell-based. Conditions: CLSI. On the procedure:
as §1

A further data set concerns E. cloacae ATCC 13047. Nature of the data set: Antibacterial activity (MIC, broth dilution). The format is cell-based. Conditions: CLSI. As for the experimental part: as §1
For the next data set, the system named is P. aeruginosa PA01. Nature of the data set: Antibacterial activity (MIC, broth dilution). The format is cell-based. To be noted: CLSI. As for the experimental part:
as §1

In data set [3] the test system is K. pneumoniae NR-15411 (KPC). Description: Antibacterial activity (MIC, broth dilution). The format is cell-based. Conditions: CLSI. On the procedure: as §1
The subject of the next data set is S. aureus MRSA 1094. Description: Antibacterial activity (MIC, broth dilution). The format is cell-based. To be noted: CLSI. As for the experimental part:
as §1

For another data set, the system named is E. faecium EF1509 (VRE). Description: Antibacterial activity (MIC, broth dilution). Type of data set: cell-based. Conditions: CLSI, in µg/mL. As for the experimental part:
as §1

The nature of data set [4]: Lipid II binding by Surface Plasmon Resonance. To be noted: SPR, immobilized 3-Lipid II, 25°C. As for the experimental part:
Short-chain water-soluble Lipid II containing a lipid tail of three isoprene units was generated and purified essentially as described. Typically, M. flavus vesicles (120 μmol lipid-Pi) were incubated together with 500 μmol UDP-GlcNAc, 500 μmol UDP-MurNAC-pentapeptide and 400 μmol farnesyl phosphate in 100 mM Tris-HCl pH 8.0, 5 mM MgCl2. The incubation lasted two hours at room temperature for 3-P. The synthesis of 3-Lipid II was followed using RP-8 reversed phase TLC (Merck) developed in 75% methanol. For purification, the membranes were removed by centrifugation at 40,000 x g and the supernatant was collected and loaded on a C18 HPLC column and eluted with a linear gradient from 50 mM ammonium bicarbonate to 100% methanol in 30 minutes. Farnesyl-Lipid II (3-Lipid II) eluted at approximately 60% methanol. Its identity was confirmed by mass spectroscopy. Surface Plasmon Resonance binding experiments were carried out on a BIAcore T100 system (BIAcore Inc., Piscataway, NY) at 25°C. The assay buffer was 10 mM HEPES, 150 mM NaCl, 0.05% surfactant P20, pH 7.4 (± 3 mM EDTA) supplemented with 10% DMSO. 3-Lipid II (50 RUs) was immobilized on CM5 sensor chips using the amine-coupling chemistry recommended by the manufacturer. For initial determination of binding, compounds were introduced into the flow-cells (30 μl/min) in the running buffer at 10 μM. Resonance signals were corrected for nonspecific binding by subtracting the background of the control flow-cell. After each analysis, the sensor chip surfaces were regenerated with 50 mM NaOH for 30 s at a flow rate 100 μl/min, and equilibrated with the buffer prior to next injection. For binding kinetics studies, binding isotherms were analyzed with manufacturer-supplied software for BIAcore T100.

Each structure is given as a SMILES string. Some results are limits rather than exact numbers.

Turning to `CN(C)c1ccc(/C=C/C=C/c2cc(-c3ccc(Br)cc3)cc(-c3ccc(Br)cc3)[o+]2)cc1.F[B-](F)(F)F` [6jc48-2], the “CC50% (72 h HeLa cells)” value with HeLa cells was 60.51. Besides, the “Antibacterial activity (MIC) A. baumanii ATCC 19606” value in the data set on A. baumanii ATCC 19606 is given as “>=64”. In data set [1], this molecule showed an Antibacterial activity (MIC) K. pneumoniae NR-15410 (KPC) of no less than 64 µg/mL. Also, in the data set on P. aeruginosa X13273, the “Antibacterial activity (MIC) P. aeruginosa X13273” value is recorded as “>=64”. This molecule also gave an Antibacterial activity (MIC) E. aerogenes ATCC 13048 in the data set with E. aerogenes ATCC 13048 of no less than 64 µg/mL. Besides, in data set [2], the Antibacterial activity (MIC) S. aureus HFH-30123 (MRSA) is no less than 64 µg/mL. For the same molecule, the “Antibacterial activity (MIC) E. faecium F118 (VRE)” value in the data set with E. faecium F118 (VRE) worked out at 16. The molecule further registered an Antibacterial activity (MIC) P. aeruginosa ATCC 27853 with P. aeruginosa ATCC 27853 of no less than 64 µg/mL. The Antibacterial activity (MIC) E. cloacae ATCC 13047 in the data set with E. cloacae ATCC 13047 is no less than 64 µg/mL. The Antibacterial activity (MIC) P. aeruginosa PA01 in the data set on P. aeruginosa PA01 was no less than 64 µg/mL. For the same molecule, the Antibacterial activity (MIC) K. pneumoniae NR-15411 (KPC) in data set [3] is no less than 64 µg/mL. The Antibacterial activity (MIC) S. aureus MRSA 1094 in the data set on S. aureus MRSA 1094 is no less than 64 µg/mL. In addition, the “Antibacterial activity (MIC) E. faecium EF1509 (VRE)” value in the data set on E. faecium EF1509 (VRE) is 4. This molecule also yielded a Kd in data set [4] of 1.14 ± 0.3 µM.

As for `Cc1ccc(-c2cc(/C=C/C=C/c3ccc(N(C)C)cc3)[o+]c(-c3ccc(C)cc3)c2)cc1.F[B-](F)(F)F` [6jc51-2], in the data set with HeLa cells, the “CC50% (72 h HeLa cells)” value is listed as “<.78125”. Besides, the “Antibacterial activity (MIC) A. baumanii ATCC 19606” value in the data set on A. baumanii ATCC 19606 was determined as 32. In data set [1], this molecule showed an Antibacterial activity (MIC) K. pneumoniae NR-15410 (KPC) of 64 µg/mL. In addition, in the data set on P. aeruginosa X13273, the “Antibacterial activity (MIC) P. aeruginosa X13273” value is “>=64”. For the same molecule, the Antibacterial activity (MIC) E. aerogenes ATCC 13048 with E. aerogenes ATCC 13048 is no less than 64 µg/mL. For the same molecule, the Antibacterial activity (MIC) S. aureus HFH-30123 (MRSA) in data set [2] worked out at 4 µg/mL. For the same molecule, the “Antibacterial activity (MIC) E. faecium F118 (VRE)” value in the data set on E. faecium F118 (VRE) is on record as 2. Also, the Antibacterial activity (MIC) P. aeruginosa ATCC 27853 in the data set with P. aeruginosa ATCC 27853 is no less than 64 µg/mL. Besides, the Antibacterial activity (MIC) E. cloacae ATCC 13047 in the data set on E. cloacae ATCC 13047 was no less than 64 µg/mL. Further, the Antibacterial activity (MIC) P. aeruginosa PA01 with P. aeruginosa PA01 is no less than 64 µg/mL. Moreover, the Antibacterial activity (MIC) K. pneumoniae NR-15411 (KPC) in data set [3] was no less than 64 µg/mL. This molecule returned an Antibacterial activity (MIC) S. aureus MRSA 1094 in the data set on S. aureus MRSA 1094 of 2 µg/mL. The “Antibacterial activity (MIC) E. faecium EF1509 (VRE)” value in the data set with E. faecium EF1509 (VRE) is 0.5. Besides, the Kd in data set [4] turned out to be 9.5 ± 2 µM.

On to `CCc1ccc(-c2cc(/C=C/C=C/c3ccc(N(C)C)cc3)[o+]c(-c3ccc(CC)cc3)c2)cc1.F[B-](F)(F)F` [6jc64-2], for which the “CC50% (72 h HeLa cells)” value in the data set with HeLa cells is “<.78125”. Also, the “Antibacterial activity (MIC) A. baumanii ATCC 19606” value in the data set with A. baumanii ATCC 19606 is given as “>=64”. For the same molecule, the Antibacterial activity (MIC) K. pneumoniae NR-15410 (KPC) in data set [1] is no less than 64 µg/mL. In addition, the “Antibacterial activity (MIC) P. aeruginosa X13273” value with P. aeruginosa X13273 was “>=64”. The Antibacterial activity (MIC) E. aerogenes ATCC 13048 with E. aerogenes ATCC 13048 is no less than 64 µg/mL. For the same molecule, the Antibacterial activity (MIC) S. aureus HFH-30123 (MRSA) in [2] was 8 µg/mL. Moreover, the “Antibacterial activity (MIC) E. faecium F118 (VRE)” value in the data set on E. faecium F118 (VRE) was 16. The Antibacterial activity (MIC) P. aeruginosa ATCC 27853 in the data set with P. aeruginosa ATCC 27853 is no less than 64 µg/mL. The molecule also showed an Antibacterial activity (MIC) E. cloacae ATCC 13047 in the data set on E. cloacae ATCC 13047 of no less than 64 µg/mL. The Antibacterial activity (MIC) P. aeruginosa PA01 in the data set on P. aeruginosa PA01 was no less than 64 µg/mL. For the same molecule, the Antibacterial activity (MIC) K. pneumoniae NR-15411 (KPC) in data set [3] was no less than 64 µg/mL. The molecule further showed an Antibacterial activity (MIC) S. aureus MRSA 1094 in the data set on S. aureus MRSA 1094 of 8 µg/mL. In addition, in the data set with E. faecium EF1509 (VRE), the “Antibacterial activity (MIC) E. faecium EF1509 (VRE)” value is recorded as 5.66. The molecule also showed an equilibrium dissociation constant (Kd) in data set [4] of 23.8 ± 4 µM.

With `CCc1ccc(-c2cc(/C=C/c3c[nH]c4ccccc34)[o+]c(-c3ccc(CC)cc3)c2)cc1.F[B-](F)(F)F` [6jc64-3], the “CC50% (72 h HeLa cells)” value in the data set with HeLa cells is on record as 3.29. In addition, the “Antibacterial activity (MIC) A. baumanii ATCC 19606” value in the data set on A. baumanii ATCC 19606 is “>=64”. In addition, the Antibacterial activity (MIC) K. pneumoniae NR-15410 (KPC) in data set [1] came out at 64 µg/mL. Moreover, the “Antibacterial activity (MIC) P. aeruginosa X13273” value in the data set with P. aeruginosa X13273 is “>=64”. The molecule also showed an Antibacterial activity (MIC) E. aerogenes ATCC 13048 in the data set on E. aerogenes ATCC 13048 of no less than 64 µg/mL. The Antibacterial activity (MIC) S. aureus HFH-30123 (MRSA) in [2] amounted to 4 µg/mL. Moreover, the “Antibacterial activity (MIC) E. faecium F118 (VRE)” value with E. faecium F118 (VRE) came to 8. The molecule further showed an Antibacterial activity (MIC) P. aeruginosa ATCC 27853 in the data set with P. aeruginosa ATCC 27853 of no less than 64 µg/mL. Moreover, the Antibacterial activity (MIC) E. cloacae ATCC 13047 with E. cloacae ATCC 13047 worked out at 64 µg/mL. In addition, the Antibacterial activity (MIC) P. aeruginosa PA01 in the data set on P. aeruginosa PA01 is no less than 64 µg/mL. The molecule further had an Antibacterial activity (MIC) K. pneumoniae NR-15411 (KPC) in [3] of 64 µg/mL. In the data set on S. aureus MRSA 1094, this molecule gave an Antibacterial activity (MIC) S. aureus MRSA 1094 of 5.66 µg/mL. Also, the “Antibacterial activity (MIC) E. faecium EF1509 (VRE)” value in the data set with E. faecium EF1509 (VRE) was 8. The same molecule gave a Kd in data set [4] of 4.92 ± 0.5 µM.

Usually Kd stands for the free concentration of one partner at which half of the binding sites on the other are occupied at equilibrium, for simple one-to-one binding. A lower Kd goes with tighter binding.
